Assay results: paper PMC8742957, “Functional signaling test identifies HER2 negative breast cancer patients who may benefit from c-Met and pan-HER combination therapy” (Cell Communication and Signaling : CCS, 2022)
Like-named read-outs stand apart in the source and are kept apart here.

Experiments:
[1] = tested on: HER-family receptors; experiment: CELsignia real-time live cell IC50 titration of pan-HER inhibitors against NRG1b/EGF stimulation, primary breast cancer cells; format: cell-based, human; conditions: six primary breast cancer cell samples with hyperactive HER- and c-Met signaling; inhibitor 18 h before NRG1b/EGF; Poziotinib three, Tucatinib five samples
Procedure: Owing to limited numbers of non-passaged or low passaged primary cells, 1000-fold, five-point dose response for antagonists to HER-family and c-Met receptors was performed for each corresponding agonist stimulus (i.e. NRG1b/EGF for HER-family activation and HGF for c-Met activation) in a live-cell CELsignia assay and the observed values were averaged. Drug additions were made 18 h prior to agonist addition. The measurand recording period of four hours began after the agonist addition. Response was plotted as a percent of the maximum response to the agonist observed in the absence of any antagonist using GraphPad Prism software and IC50 values were derived using non-linear regression.
A representative dose–response curve of cells from patient R66 to stimulation with NRG1b/EGF following pre-treatment with the indicated antagonists is shown in Fig. 4a. A total of six primary cell lines isolated from as many patients were included in this IC50 titration test and the average values are summarized in Table 1. The IC50 values for pan-HER antagonists against NRG1b/EGF stimulation determined from our real-time live cell assay align with what was previously reported in cell-free assays.

[2] = tested on: HCC1954 xenograft; conditions: NSG mice; for Tumor reduction, drug arm versus control: oral gavage QD 21 doses, Neratinib 40, Tepotinib 50, Erlotinib 25 mg/kg
Procedure: A selection of an appropriate cell line was necessary owing greatly to the limited commercially available tumorigenic breast cancer mouse models with the abnormal signaling function of interest to this study. Female NSG (NOD SCID gamma; NOD.Cg-Prkdc^scid Il2rg^tm1Wjl/SzJ) mice were procured from Jackson Labs (Bar Harbor, Maine, USA). The mice were injected in their fat pad with HCC1954 cells dissolved in 150 µL of a 50% Matrigel solution. Tumors were allowed to form until they reached a minimum average size of 150 mm^3. At this time, the tumor bearing cohort was divided up into 10-mouse treatment groups of uniform distribution of tumor sizes, just prior to initiating treatment. Tumor size and body weights were measured a minimum of twice per week. Upon completion of the study period, the mice were euthanized for necropsy and sample/tissue collection at the study endpoint or when tumor size reached ≥ 2 cm^3.
Female NSG mice, 4–5 weeks old, were injected subcutaneously in the left mammary fat pad with two million HCC1954 cells. After the average tumor volume reached 150 mm^3 the mice were randomly assigned into six cohorts of 10 mice each (n = 10). Each of the experimental mice were dosed by oral gavage with 100 µL dosing solution daily (QD) for 21 days (21 doses). […] In order to determine the effects of the pan-HER and c-Met antagonists on tumor size, the tumor volume (in mm^3) was measured and plotted as shown in Fig. 8b.

[3] = tested on: HER/c-met signaling in HCC1954 cells; experiment: CELsignia analysis of HCC1954 cells, antagonists against cocktail of agonists (NRG, EGF, HGF); format: cell-based, human; conditions: cocktail NRG 3 nM, EGF 0.3 nM, HGF 50 pM, errors are standard deviation
Procedure: During the combined drug testing, we investigated the benefit of targeting HER1 specifically in combination with c-Met.
2.5 3x GF (N RG 3 n M, E G F 0. 3 nM , HG F 50 p M)
Fig. S6: Impedance time course example for antagonist effects on a cocktail of agonists
(NRG, EGF and HGF) for HCC1954 used to derive data in Table 7 (N of 4 experiments).
Also included on the plot timecourse are cells only (HSSM, red line) untreated by agonist

[4] = target: T1, c-Met (Homo sapiens, UniProt P08581); experiment: Cross-talk analysis, inhibition of HGF signal in patient primary tumor cells (CELsignia); conditions: HGF 50 pM, Erlotinib 500 nM, Tucatinib 250 nM, Tepotinib 50 nM, four-hour period
T1 sequence (P08581 25-1390): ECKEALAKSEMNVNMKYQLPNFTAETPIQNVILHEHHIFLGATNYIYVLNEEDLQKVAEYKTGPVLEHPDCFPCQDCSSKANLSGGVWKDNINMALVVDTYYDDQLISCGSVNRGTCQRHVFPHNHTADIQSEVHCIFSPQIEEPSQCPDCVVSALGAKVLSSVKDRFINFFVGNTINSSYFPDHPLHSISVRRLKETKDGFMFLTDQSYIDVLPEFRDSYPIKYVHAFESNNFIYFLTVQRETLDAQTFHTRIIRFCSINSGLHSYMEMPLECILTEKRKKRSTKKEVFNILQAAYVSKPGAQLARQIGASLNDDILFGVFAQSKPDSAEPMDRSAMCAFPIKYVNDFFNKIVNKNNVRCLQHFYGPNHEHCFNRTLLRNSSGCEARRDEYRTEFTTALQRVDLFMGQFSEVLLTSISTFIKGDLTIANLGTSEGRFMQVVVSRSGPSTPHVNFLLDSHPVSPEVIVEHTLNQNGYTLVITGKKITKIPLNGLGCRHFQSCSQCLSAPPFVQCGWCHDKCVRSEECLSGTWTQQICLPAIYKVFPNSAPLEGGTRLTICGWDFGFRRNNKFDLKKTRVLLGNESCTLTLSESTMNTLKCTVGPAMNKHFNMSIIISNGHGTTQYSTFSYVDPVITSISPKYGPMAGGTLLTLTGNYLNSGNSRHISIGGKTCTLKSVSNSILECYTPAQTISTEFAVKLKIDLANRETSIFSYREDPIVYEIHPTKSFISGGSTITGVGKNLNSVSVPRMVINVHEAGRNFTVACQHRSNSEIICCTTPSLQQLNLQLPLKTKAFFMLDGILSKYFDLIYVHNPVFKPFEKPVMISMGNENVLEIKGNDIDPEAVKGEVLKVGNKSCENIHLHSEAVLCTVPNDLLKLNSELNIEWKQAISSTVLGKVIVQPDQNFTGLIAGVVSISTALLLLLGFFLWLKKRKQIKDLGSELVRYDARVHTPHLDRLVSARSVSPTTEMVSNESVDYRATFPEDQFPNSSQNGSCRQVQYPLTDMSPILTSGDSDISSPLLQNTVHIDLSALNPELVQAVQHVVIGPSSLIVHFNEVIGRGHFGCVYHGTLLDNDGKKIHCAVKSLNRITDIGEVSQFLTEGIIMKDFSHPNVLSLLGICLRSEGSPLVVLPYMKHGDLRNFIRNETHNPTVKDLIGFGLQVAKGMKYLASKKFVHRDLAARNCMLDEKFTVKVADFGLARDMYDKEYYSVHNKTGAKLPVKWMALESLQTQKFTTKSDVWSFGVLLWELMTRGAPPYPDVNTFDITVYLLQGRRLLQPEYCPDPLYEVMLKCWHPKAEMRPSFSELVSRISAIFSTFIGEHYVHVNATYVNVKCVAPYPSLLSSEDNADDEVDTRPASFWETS

[5] = tested on: BT-474 cells; experiment: Flow cytometry of cell toxicity markers, BT-474, 72 h; format: cell-based, human; conditions: neratinib and/or tepotinib
Procedure: For analysis of cell toxicity, single cell suspensions were stained with TMRE (200 nM for 30 min), washed with FACS buffer, and stained with Annexin V-AlexaFluor647 (Biolegend; San Diego, CA) following the manufacturers’ instructions. The TMRE/Annexin V stained cells were resuspended in FACS buffer containing Sytox Blue (Thermo Fisher; Waltham, MA) and analyzed on a Novocyte 3000 FACS instrument and NovoExpress software (Agilent; Santa Clara, CA). For analysis of intracellular phosphoproteins by FACS, cells were stained using a Live/Dead fixable dye (Zombie NIR; BioLegend), fixed using 1.6% paraformaldehyde, permeabilized with cold-methanol, and then stained using antibodies towards AKT-pS473 (Cell Signaling Technology; Danvers, MA) and FAK-pS910 (BD Biosciences) (Table S2) prior to FACS analysis. […]
marker resistance to prolonged drug treatment – Normal signaling cell line, BT474. BT-474 […]
These cell lines were treated with neratinib […]
(§1) cytometry for cell death using Sytox Blue, apoptosis marker annexin V, and mitochondrial potential by TMRE staining. Flow cytometry histogram plots are representative of at least two […]
(§2) according to these markers.
(§3) (1 picture or pasted object on this page, not shown here)

[6] = tested on: HER-family (EGF stimulation); experiment: Impedance test IC50 with single growth factor EGF (set-up of median effects, HCC1954); format: cell-based, human; conditions: neratinib + EGF
Text: Fig. S5: Median effects plots.
EGF on HCC1954. When CI>1,
and Talalay. CI<1 is indicative of synergy. C) Antagonist median effects plot of patient sample
indicative of additivity; CI<1 is indicative of synergy.

[7] = tested on: A549 cells; experiment: Flow cytometry of cell toxicity markers, A549, 72 h; format: cell-based, human; conditions: neratinib and/or tepotinib
Procedure: For analysis of cell toxicity, single cell suspensions were stained with TMRE (200 nM for 30 min), washed with FACS buffer, and stained with Annexin V-AlexaFluor647 (Biolegend; San Diego, CA) following the manufacturers’ instructions. The TMRE/Annexin V stained cells were resuspended in FACS buffer containing Sytox Blue (Thermo Fisher; Waltham, MA) and analyzed on a Novocyte 3000 FACS instrument and NovoExpress software (Agilent; Santa Clara, CA). […]
marker resistance to prolonged drug treatment – Normal signaling cell line, A549. A549 cell […]
A549 cells were treated with neratinib […]
as §1, §2, §3

[8] = tested on: AKT-pS473 and FAK-pS910 in HCC1954 cells; experiment: Intracellular phospho-flow cytometry of AKT-pS473 and FAK-pS910, HCC1954; format: cell-based, human; conditions: 16 h
[9] = tested on: HER-family and c-Met receptors; experiment: CELsignia inhibition of combined NRG/EGF/HGF cocktail signal, patient breast cancer cells; format: cell-based, human; conditions: patient C135; Neratinib 500 nM, tepotinib 50 nM; compared to growth factor only well
Procedure: To simulate this multiplexed perturbant condition and test the ability of the different targeted drugs to attenuate abnormal signaling from multiplexed agonists, patient breast cancer cells were stimulated with a growth factor cocktail of EGF, NRG1b, and HGF (N/E/H) to simultaneously initiate signaling via the HER-family and c-Met receptors. […] Cell index signaling units were calculated relative to the baseline values obtained from cells that were not treated with either agonists or antagonists.

[10] = tested on: MDA-MB-231 cells; experiment: Flow cytometry of cell toxicity markers, MDA-MB-231; format: cell-based, human; conditions: 250 nM, singly or in combination, 16h
Procedure: (§4) For analysis of cell toxicity, single cell suspensions were stained with TMRE (200 nM for 30 min), washed with FACS buffer, and stained with Annexin V-AlexaFluor647 (Biolegend; San Diego, CA) following the manufacturers’ instructions. The TMRE/Annexin V stained cells were resuspended in FACS buffer containing Sytox Blue (Thermo Fisher; Waltham, MA) and analyzed on a Novocyte 3000 FACS instrument and NovoExpress software (Agilent; Santa Clara, CA). For analysis of intracellular phosphoproteins by FACS, cells were stained using a Live/Dead fixable dye (Zombie NIR; BioLegend), fixed using 1.6% paraformaldehyde, permeabilized with cold-methanol, and then stained using antibodies towards AKT-pS473 (Cell Signaling Technology; Danvers, MA) and FAK-pS910 (BD Biosciences) (Table S2) prior to FACS analysis.
(§5) Figure S8. CELsignia test is more sensitive and rapid for detecting anti-cancer drug efficacy compared to biological correlates – Normal signaling cell line, MDA-MB-231. MDA-MB-231 cells were normal signaling for HER and c-Met by the CELsignia test. To test flow cytometry markers for correlation a test was setup following the dose and time parameters used for the CELsignia test. The cells were seeded in collagen-fibrinogen (CF) coated culture plates and treated […]
indicated. Cells were harvested and then analyzed by flow cytometry for the markers shown following a period of 16h drug treatment. […]
these drugs according to the Sytox blue marker.
as §3
Figure S10. CELsignia test is more sensitive and rapid for detecting anti-cancer drug efficacy compared to biological correlates – Normal signaling cell line, MDA-MB-231 continued.
MDA-MB-231 cells were seeded in collagen-fibrinogen (CF) coated culture plates and treated 6h […]
Cells were harvested and then analyzed by flow cytometry for the markers shown following a period of 16h drug treatment. […]
according to annexin V marker.
Figure S12. CELsignia test is more sensitive and rapid for detecting anti-cancer drug efficacy […]
according to TMRE marker.

[11] = tested on: BT-20 cells; experiment: Flow cytometry of cell toxicity markers, BT-20; format: cell-based, human; conditions: 250 nM, singly or in combination, 16h
Procedure: as §4
as §5, with “S7.” for “S8.”, “BT-20. BT-20” for “MDA-MB-231. MDA-MB-231”, “cells” for “cells were seeded in collagen-fibrinogen (CF) coated culture plates and treated”
(250 nM) and neratinib (250 nM), either singly or in combination, as indicated. Cells were harvested and then analyzed by flow cytometry for the markers shown following a period of 16h […]
as §3
Figure S9. CELsignia test is more sensitive and rapid for detecting anti-cancer drug efficacy compared to biological correlates – Normal signaling cell line, BT20 continued. BT-20 cells […]
Figure S11. CELsignia test is more sensitive and rapid for detecting anti-cancer drug efficacy compared to biological correlates – Normal signaling cell line, BT-20 continued. BT-20 cells

[12] = target: T1, c-Met; experiment: cell-based
[13] = read-out: Percent inhibition of growth factor signal, patient C753
[14] = read-out: Percent inhibition of growth factor signal, patient C1061
[15] = read-out: Percent inhibition of growth factor signal, patient R66

With COc1cc2ncnc(Nc3ccc(F)c(Cl)c3)c2cc1NC(=O)/C=C/CN1CCCCC1 [Dacomitinib] the IC50 [1] was 22.1 nM.

For C#Cc1cccc(Nc2ncnc3cc(OCCOC)c(OCCOC)cc23)c1 [Erlotinib], the “Tumor reduction, drug arm versus control” value [2] was 5% (p = 0.870), the “HER/c-met inhibition (%)” value [3] was 9.2 ± 10.3 (n = 2) % and the inhibition at 0.5 µM [4, 13] was 15%. For the same molecule, the inhibition at 0.5 µM [4, 14] was 7% and the inhibition at 0.5 µM [4, 15] was 38%.

With C=CC(=O)N1CCC[C@@H](n2nc(-c3ccc(Oc4ccccc4)cc3)c3c(N)ncnc32)C1 [Ibrutinib] the IC50 [1] was 13.1 nM.

Molecule CS(=O)(=O)CCNCc1ccc(-c2ccc3ncnc(Nc4ccc(OCc5cccc(F)c5)c(Cl)c4)c3c2)o1 [Lapatinib] has an IC50 [1] of 137 nM.

In the case of CCOc1cc2ncc(C#N)c(Nc3ccc(OCc4ccccn4)c(Cl)c3)c2cc1NC(=O)/C=C/CN(C)C [Neratinib], the “Response according to Sytox Blue, annexin V and TMRE markers” value (from here on “Response according to Sytox Blue”) [5] is reported as “do not respond”, the IC50 [6] is reported as 15 nM and the “Response according to Sytox Blue” value [7] is reported as “do not respond”. The “Tumor reduction, drug arm versus control” value [2] was 54% (p = 0.003), the “Tumor reduction, drug arm versus control” value ([2]; listed as neratinib) was 54% and the “distribution of pFAK high cells” value [8] was “not significantly altered”. The “frequency of pAKT high cells” value ([8]; singly and in combination with tepotinib) was “dose-dependent decline”, the “Order of efficacy against response to simultaneous NRG, EGF and HGF” value [9] was “more efficacious” and the IC50 [1] was 4.81 nM. The “Response according to TMRE marker” value [10] was “do not respond”, the “Response according to annexin V marker” value [10] was “do not respond” and the “Response according to the Sytox blue marker” value [10] was “do not respond”. The “Response according to TMRE marker” value [11] was “do not respond”, the “Response according to annexin V marker” value [11] was “do not respond” and the “Response according to the Sytox blue marker” value [11] was “do not respond”. The “HER/c-met inhibition (%)” value [3] was 14.6 ± 29.6 (n = 4) %.

C=CC(=O)N1CCC(Oc2cc3c(Nc4ccc(Cl)c(Cl)c4F)ncnc3cc2OC)CC1 [Poziotinib] was tested, and the IC50 [1] was 1.23 nM.

Work on CNC(=O)CN1CCC(Oc2cc3c(Nc4cccc(Cl)c4F)ncnc3cc2OC)CC1 [Sapitinib] yielded an IC50 [1] of 41.3 nM.

For C[C@@H](c1ccc2nccn2c1)n1nnc2ncc(-c3cnn(C)c3)nc21 [Savolitinib], the IC50 [12] was 3.56 nM.

CN1CCC(COc2cnc(-c3cccc(Cn4nc(-c5cccc(C#N)c5)ccc4=O)c3)nc2)CC1 [Tepotinib] was tested, and the “Response according to Sytox Blue” value [5] was “do not respond”, the “Response according to Sytox Blue” value [7] was “do not respond” and the “Tumor reduction, drug arm versus control” value [2] was 10% (p = 0.780). The “Adverse observations in treated cohort” value ([2]; oral gavage QD, Tepotinib 50 mg/kg, Neratinib + Tepotinib 40 + 50 mg/kg) was “^#Due to weight loss, 1 mouse given 3 day dose holiday due, and 1 mouse given 7 day dose holiday”, the “effect on pFAK and pAKT population distributions” value ([8]; single agent) was “no detectable dose-dependent effect” and the “Response according to TMRE marker” value [10] was “do not respond”. For the same molecule, the “Response according to annexin V marker” value [10] was “do not respond”, the “Response according to the Sytox blue marker” value [10] was “do not respond” and the “Response according to TMRE marker” value [11] was “do not respond”. For the same molecule, the “Response according to annexin V marker” value [11] was “do not respond” and the “Response according to the Sytox blue marker” value [11] was “do not respond”.

With Cc1cc(Nc2ncnc3ccc(NC4=NC(C)(C)CO4)cc23)ccc1Oc1ccn2ncnc2c1 [Tucatinib] the IC50 [1] was 333 nM, the inhibition at 0.25 µM [4, 13] was -6% and the inhibition at 0.25 µM [4, 14] was -13%. It also gave an inhibition at 0.25 µM [4, 15] of 25%.
